In ChEMBL document CHEMBL1201862, “PubChem BioAssay data set” (2004):
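Each compound was tested at five concentrations against cells in 96-well plates for 48 hours. Abbreviation: GI50, concentration required for 50% inhibition of growth.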 Calls of active or inactive are those of the source. No stated cut-off is given here; in the data, active = GI50 up to about 1.1 µM and inactive = higher.

Columns and labels:
Experiment in all cases: NCI tumour cell line growth inhibition, 48 h
[1] = test system: MDA-N
[2] = test system: SNB-19
[3] = test system: SF-539
[4] = test system: RPMI-8226
[5] = test system: HOP-62
[6] = test system: UO-31
[7] = test system: OVCAR-3
[8] = test system: MCF7
[9] = test system: NCI-H460
[10] = test system: HL-60
[11] = test system: SR
[12] = test system: M14
[13] = test system: Hs-578T
[14] = test system: MOLT-4
[15] = test system: NCI-H522
[16] = test system: T47D
[17] = test system: TK-10
[18] = test system: LOX IMVI
[19] = test system: BT-549
[20] = test system: CCRF-CEM

Row | Structure (SMILES) | GI50 [1] | GI50 [2] | GI50 [3] | GI50 [4] | GI50 [5] | GI50 [6] | GI50 [7] | GI50 [8] | GI50 [9] | GI50 [10] | GI50 [11] | GI50 [12] | GI50 [13] | GI50 [14] | GI50 [15] | GI50 [16] | GI50 [17] | GI50 [18] | GI50 [19] | GI50 [20]
1 | COC1=C(Br)[C@H](O)[C@@]2(C=C1Br)CC(C(=O)NCCCOc1c(Br)cc(C(O)CNC(C)=O)cc1Br)=NO2 (stereo not given in full) [APLYSINAMISINE III] | 2.11 µM (inactive) | > 10 µM (inactive) | > 10 µM (inactive) | > 10 µM (inactive) | > 10 µM (inactive) | > 10 µM (inactive) | > 10 µM (inactive) | 6.18 µM (inactive) | > 10 µM (inactive) | 2.19 µM (inactive) | 0.00518 µM (active) | 8.73 µM (inactive) | > 10 µM (inactive) | 7.73 µM (inactive) | 4.17 µM (inactive) | > 10 µM (inactive) | > 10 µM (inactive) | > 10 µM (inactive) | 2.79 µM (inactive) | > 10 µM (inactive)
2 | Cc1cccc(/C=N/NC(=S)N(C)CCc2ccccn2)n1 | 0.473 µM (active) | 0.729 µM (active) | 0.407 µM (active) | 0.104 µM (active) | 0.32 µM (active) | 0.271 µM (active) | 0.0853 µM (active) | 0.42 µM (active) | 0.267 µM (active) | 0.0429 µM (active) | 0.246 µM (active) | 0.329 µM (active) | > 33 µM (inactive) | 0.0647 µM (active) | 0.214 µM (active) | 0.123 µM (active) | 15.2 µM (inactive) | 0.207 µM (active) | 0.857 µM (active) | 0.0288 µM (active)
3 | O=S1(=O)CCN(c2ccccc2CC(c2c[nH]c3ccccc23)c2c[nH]c3ccccc23)CC1 | 3.92 µM (inactive) | 12.3 µM (inactive) | 11.9 µM (inactive) | 1.75 µM (inactive) | 13.6 µM (inactive) | 7.41 µM (inactive) | 5.53 µM (inactive) | 3.66 µM (inactive) | 2.67 µM (inactive) | 1.12 µM (active) | 3.08 µM (inactive) | 4.35 µM (inactive) | 7.71 µM (inactive) | 2.33 µM (inactive) | 4.49 µM (inactive) | 6.35 µM (inactive) | 5.32 µM (inactive) | 3.57 µM (inactive) | 11.9 µM (inactive) | 1.99 µM (inactive)
